From patent publication US4791215A, “Derivatives of glutamic acid and aspartic acid” (priority 1984, dated 1988) come the findings set out here.

The test system of test [1] is CCK-8 induced contraction of guinea pig gall bladder. The test is described as follows: Anti-CCK activity on gall bladder strips in vitro. Conditions: CCK-8 10 ng/ml. As to the method: ANTI-CCK ACTIVITY ON GUINEA PIG GALL BALDDERS IN VITRO
A longitudinal strip of guinea pig gall bladder was placed in a bath of isolated members in the presence of Krebs at a temperature of 32° C. with continuous oxygenation with an oxygen-CO2 mixture (95-5V/V).
The isometric contractions were detected by means of a force transducer and recorded.
The gall bladder was made to contract with the use of a 10 ng/ml concentration of CCK-8; the antagonistic activity of the compounds of the invention on the contracting effect of the CCK was determined with the use of different concentrations and the ED 50 value, that is the concentration in μg/ml of a compound which could antagonise 50% of the contracting effect of the CCK, was determined.

The test system of another test is morphine analgesia. The test is described as follows: Increase in analgesia of morphine, Tail Flick Test (Experiment 1). In kind it is in vivo, rats. Conditions: for percentage variation of latency of pain sensation / M (10-90) ± SE, mean percentage variation of latency: compound 10 mg/kg i.p. + morphine 2 mg/kg; for M (10-90) ± SE, mean percentage variation of latency: mean 10-90 min; for Power ratio with respect to morphine alone: rat, in vivo. The method, then:
Experiment No: 1 Increase in analgesia of analgesic-narcotic drugs in rats by the Tail Flick Test
The method is that described by Harris et al. (J. Pharmacol. Exp. Ther. 143 (1964) 141-148).
Male rats are used having a weight of about 150-200 g which have not fasted. A point on the tail is chosen and irradiated by a heat source (75° C.) and the time (in seconds) for which the animal remains without moving its tail is measured.
A maximum period of time of 8 seconds under the heat source is chosen, after which the animal is, in any case, removed to avoid tissue damage. The measurement is effected before (controls) and after treatment with the drugs.
The percentage variation is calculated for each individual animal by the following formula: [formula] The measurements were carried out 10, 20, 30, 45, 60 and 90 minutes after treatment with the analgesics.

Test [2] has as its system activity of analgesic drugs. The test is described as follows: Hot-plate test, potentiation of analgesic drugs (Experiment 2). In kind it is in vivo, rats. The method, then:
Experiment No. 2: Hot-plate test
The method is that described by Eddy et al. (J. Pharmac. Exp. Ther. 107, 385 (1953)).
Groups of five male rats having a weight of about 150 g, and which have not fasted, are used.
The animals are placed on a metal plate on the bottom of a transparent cylinder, which is heated to 55°±1° C. by an azeotropic boiling mixture (acetone-ethyl formate 1:1).
The reaction time is defined as the interval which passes between the moment at which the animal is placed on the hot-plate and the moment at which it either licks its feet or tries to jump out of the cylinder. The control reaction time is measured 10 and 5 minutes before administration of the drugs and 10, 20, 30, 45, 60 and 90 minutes afterwards. The animals are left on the plate for a maximum period of 30 seconds.
The response to the administration of the product is considered positive if at least a doubling of the normal reaction time is seen. The results obtained are given in Tables 2a and 2b which record the groups treated, the doses administered and the stay times on the plate expressed as the number of positive responses over the number treated.

Regarding `Cc1ccc(C(=O)NC(CCC(=O)N(C)C)C(=O)O)cc1C` [Compound D-12], the “ED50 (concentration antagonising 50% of contracting effect of CCK-8)” value in test [1] was above 300 µg/mL. In addition, the “percentage variation of latency of pain sensation” value with morphine analgesia (10') is 45.4 ± 23%; in the test with morphine analgesia (20'), 63.9 ± 15%; in the test with morphine analgesia (30'), 84. ± 16%; in the test with morphine analgesia (45') it was 100 ± 0%; in the test with morphine analgesia (60') it was 78.5 ± 15%; in the test on morphine analgesia (90') it was 56.1 ± 22%. In addition, in the test with morphine analgesia, the “M (10-90) ± SE, mean percentage variation of latency” value was 71.3 ± 20%. The “Power ratio with respect to morphine alone” value (from here on “Power ratio”) with morphine analgesia stood at 2.39.
As for `CCCN(CCC)C(=O)C(CCC(=O)O)NC(=O)c1ccccc1Br` (stereo not shown) [Compound C-14], the “ED50 (concentration antagonising 50% of contracting effect of CCK-8)” value in test [1] worked out at 118.4 µg/mL. Further, the “percentage variation of latency of pain sensation” value in the test with morphine analgesia (10') is 36.5 ± 28.4%; in the test on morphine analgesia (20'), 76.0 ± 12.7%; in the test with morphine analgesia (30'), 79.3 ± 10.6%; in the test on morphine analgesia (45'), 77.0 ± 6.7%; in the test with morphine analgesia (60'), 98.3 ± 1.3%; in the test on morphine analgesia (90'), 71.9 ± 13.2%. Moreover, in the test with morphine analgesia, the “M (10-90) ± SE, mean percentage variation of latency” value was determined as 73.1 ± 20.0%. Further, in the test with morphine analgesia, the “Power ratio” value amounted to 2.45.
As to `CCCCN(CCCC)C(=O)C(CCC(=O)O)NC(=O)c1ccc(C)c(C)c1` (stereo not shown) [Compound C-54], in test [1], the “ED50 (concentration antagonising 50% of contracting effect of CCK-8)” value is 1.2 µg/mL. Besides, the “percentage variation of latency of pain sensation” value came out at 77.0 ± 10% in the test on morphine analgesia (10'); 89.1 ± 11% in the test with morphine analgesia (20'); 100 ± 0% in the test on morphine analgesia (30'); 99.2 ± 0.8% in the test on morphine analgesia (45'); 69.6 ± 16% in the test with morphine analgesia (60'); 63.2 ± 19% with morphine analgesia (90'). Further, in the test with morphine analgesia, the “M (10-90) ± SE, mean percentage variation of latency” value was found to be 83.0 ± 15%. Further, in the test on morphine analgesia, the “Power ratio” value was found to be 2.78.
`CCCN(CCC)C(=O)C(CCC(=O)O)NC(=O)c1cccc(Cl)c1` (stereo not shown) [Compound C-2]: the “ED50 (concentration antagonising 50% of contracting effect of CCK-8)” value in test [1] is above 200 µg/mL. Besides, the “percentage variation of latency of pain sensation” value with morphine analgesia (10') stood at 27.8 ± 13.0%; in the test on morphine analgesia (20'), 43.8 ± 25.0%; in the test with morphine analgesia (30') it was 67.5 ± 20.0%; in the test on morphine analgesia (45') it was 64.2%; in the test with morphine analgesia (60'), 74.4 ± 16.0%; in the test on morphine analgesia (90'), 57.3 ± 19.0%. In addition, the “M (10-90) ± SE, mean percentage variation of latency” value in the test with morphine analgesia was 55.8 ± 17.0%. Besides, in the test on morphine analgesia, the “Power ratio” value amounted to 1.87.
As to `CCCCNC(=O)C(CCC(=O)O)NC(=O)c1cccc(C#N)c1` (stereo not shown) [Compound C-21], the “ED50 (concentration antagonising 50% of contracting effect of CCK-8)” value in test [1] is above 200 µg/mL. The “percentage variation of latency of pain sensation” value turned out to be 48.6 ± 19.0% with morphine analgesia (10'); 37.4 ± 12.0% with morphine analgesia (20'); 54.8 ± 19.0% with morphine analgesia (30'); 44.6 ± 15.0% with morphine analgesia (45'); 64.0 ± 18.0% in the test with morphine analgesia (60'); 54.9 ± 10.0% with morphine analgesia (90'). In addition, the “M (10-90) ± SE, mean percentage variation of latency” value with morphine analgesia is 50.7%. In the test with morphine analgesia, the “Power ratio” value is 1.70.
For `CCCN(CCC)C(=O)C(CCC(=O)O)NC(=O)c1ccc(Cl)cc1` (stereo not shown) [Compound C-3], in test [1], the “ED50 (concentration antagonising 50% of contracting effect of CCK-8)” value is 34.4 µg/mL. The “percentage variation of latency of pain sensation” value was determined as 44.4% in the test with morphine analgesia (10'); 83.7 ± 16.3% with morphine analgesia (20'); 77.8 ± 17.1% in the test on morphine analgesia (30'); 46.4 ± 24.5% in the test with morphine analgesia (45'); 73.6 ± 17.7% in the test with morphine analgesia (60'); 45.8 ± 22.8% in the test on morphine analgesia (90'). The “M (10-90) ± SE, mean percentage variation of latency” value in the test on morphine analgesia is 61.9 ± 18.2%. Besides, the “Power ratio” value in the test with morphine analgesia turned out to be 2.10.
For the compound `CCCCN(CCCC)C(=O)C(CCC(=O)O)NC(=O)c1ccc(Br)cc1` (stereo not shown) [Compound C-25], the “ED50 (concentration antagonising 50% of contracting effect of CCK-8)” value in test [1] amounted to 30.3 µg/mL. Also, the “percentage variation of latency of pain sensation” value worked out at 59.7 ± 15.0% with morphine analgesia (10'); 49.0 ± 13.0% in the test with morphine analgesia (20'); 71.5% in the test on morphine analgesia (30'); 61.9 ± 22.0% in the test with morphine analgesia (45'); 49.0 ± 22.0% with morphine analgesia (60'); 20.4 ± 6.0% in the test on morphine analgesia (90'). Moreover, the “M (10-90) ± SE, mean percentage variation of latency” value in the test with morphine analgesia is on record as 51.9 ± 18.0%. Also, the “Power ratio” value with morphine analgesia is reported as 1.74.
Regarding `CCCCC1C(=O)N(c2ccccc2)N(c2ccc(O)cc2)C1=O` (stereo not shown) [Oxyphenylbutazone, reference compound], the TOTAL positives in test [2] (oxyphenylbutazone 50 mg/kg i.p. alone) is 7 x/30. For the same compound, the “positive responses over number treated” value in test [2] (oxyphenylbutazone 50 mg/kg i.p. alone, 10') is given as 2/5; in test [2] (oxyphenylbutazone 50 mg/kg i.p. alone, 20'), 1/5; in test [2] (oxyphenylbutazone 50 mg/kg i.p. alone, 30'), 2/5; in test [2] (oxyphenylbutazone 50 mg/kg i.p. alone, 45'), 2/5; in test [2] (oxyphenylbutazone 50 mg/kg i.p. alone, 60'), 0/5; in test [2] (oxyphenylbutazone 50 mg/kg i.p. alone, 90'), 0/5.
As to Propoxyphene [reference compound], the results for the TOTAL positives in test [2] (propoxyphene 10 mg/kg i.p. alone) and in test [2] (propoxyphene 15 mg/kg i.p. alone) were 8 X/30 and 12 x/30, respectively. The “positive responses over number treated” value in test [2] (propoxyphene 10 mg/kg i.p. alone, 10') is on record as 1/5; in test [2] (propoxyphene 10 mg/kg i.p. alone, 20'), 2/5; in test [2] (propoxyphene 10 mg/kg i.p. alone, 30'), 2/5; in test [2] (propoxyphene 10 mg/kg i.p. alone, 45'), 2/5; in test [2] (propoxyphene 10 mg/kg i.p. alone, 60'), 1/5; in test [2] (propoxyphene 10 mg/kg i.p. alone, 90'), 0/5. Besides, the “positive responses over number treated” value in test [2] (propoxyphene 15 mg/kg i.p. alone, 10') is 2/5; in test [2] (propoxyphene 15 mg/kg i.p. alone, 20'), 2/5; in test [2] (propoxyphene 15 mg/kg i.p. alone, 30') it was 3/5; in test [2] (propoxyphene 15 mg/kg i.p. alone, 45') it was 3/5; in test [2] (propoxyphene 15 mg/kg i.p. alone, 60') it was 1/5; in test [2] (propoxyphene 15 mg/kg i.p. alone, 90') it was 3/5.
Take `CC(=O)Oc1ccccc1C(=O)O` [Acetyl Salicylic Acid, reference compound]: the TOTAL positives in test [2] (acetyl salicylic acid 100 mg/kg i.p. alone) came out at 8 x/30. Also, the “positive responses over number treated” value in test [2] (acetyl salicylic acid 100 mg/kg i.p. alone, 10') was 1/5; in test [2] (acetyl salicylic acid 100 mg/kg i.p. alone, 20') it was 2/5; in test [2] (acetyl salicylic acid 100 mg/kg i.p. alone, 30'), 2/5; in test [2] (acetyl salicylic acid 100 mg/kg i.p. alone, 45'), 2/5; in test [2] (acetyl salicylic acid 100 mg/kg i.p. alone, 60'), 0/5; in test [2] (acetyl salicylic acid 100 mg/kg i.p. alone, 90'), 1/5.
